Assay results taken from patent US20210069135A1, “THERAPEUTIC APPROACHES FOR TREATING EPILEPSY AND RELATED DISORDERS THROUGH REDUCTION OF EPILEPTOGENESIS” (PHARNEXT, priority 2012, published 2021).
“Also recorded” adds a separate entry of the source.

Tests used:
[1] = test system: PTZ-induced seizures in mice; experiment: Pentylenetetrazol (PTZ)-induced seizure in mice model; format: in vivo, CD-1 mice
Procedure: Four to five week old male CD-1 mice of about 20 g (Janvier; Le Genest St Isle—France) were acclimatized to the environment for one week before the experiment.
They were group-housed (5-10 mice per cage) and maintained in a room with controlled temperature (21-22° C.) and a reversed light-dark cycle (12 h/12 h; lights on: 17:30-05:30; lights off: 05:30-17:30) with food and water available ad libitum.
PTZ-induced seizures in mice are an accepted in vivo model for the screening of antiepileptic drugs. PTZ is a blocker of the chloride ionophore complex to the GABAA receptor that has […] effects after repeated or single dose administration and also affects several neurotransmitter systems, such as the GABAergic and glutamatergic systems. Seizures were induced by administration of 100 mg/kg (subcutaneously) of PTZ. Levetiracetam (500 mg/kg), used as an internal positive control, was administered 60 min before the PTZ injection. Drugs of the invention were injected per os 2 h before PTZ administration. Acamprosate calcium (two molecules of acamprosate for a calcium ion) was tested at three different doses.
As already stated, 100 mg/kg PTZ were injected subcutaneously and the animals were then observed for 1 h after injection. The latencies for clonic seizures, tonic seizures, and death were monitored. Clonic seizures consist in rhythmic contractions of forelimbs and/or hindlimbs. Tonic seizures consist in rigid extension of the forelimbs and/or hindlimbs.
Analysis of variance (ANOVA) was performed on the result data. Fisher's Protected Least Significant Difference was used for pairwise comparisons. Statistical difference was assessed by Fisher's exact test. p values≤0.05 were considered significant.

neuronal cortical cells = experiment: Glutamate toxicity assay on primary cortical neuron cells (neurite network, neurofilament immunostaining); format: cell-based, rat; conditions: for protection against glutamate toxicity, drug alone: torasemide or baclofen alone at the same doses as in the combination of FIG. 4 (400 nM, 2 μM), not significant
Procedure: Rat cortical neurons were cultured as described by Singer et al.. Briefly, pregnant female rats of 15 days gestation were killed by cervical dislocation (Rats Wistar) and the fetuses were removed from the uterus. The cortex was removed and placed in ice-cold medium of Leibovitz (L15) containing 2% of penicillin 10,000 U/mL and streptomycin 10 mg/mL and 1% of bovine serum albumin (BSA). Cortices were dissociated by trypsin for 20 min at 37° C. (0.05%). The reaction was stopped by the addition of Dulbecco's modified Eagle's medium (DMEM) containing DNasel grade II and 10% of foetal calf serum (FCS). Cells were then mechanically dissociated by 3 serial passages through a 10 mL pipette and centrifuged at 515×g for 10 min at +4° C. The supernatant was discarded and the pellet of cells was re-suspended in a defined culture medium consisting of Neurobasal supplemented with B27 (2%), L-glutamine (0.2 mM), 2% of PS solution and 10 ng/mL of BDNF. Viable cells were counted in a Neubauer cytometer using the trypan blue exclusion test. The cells were seeded at a density of 30 000 cells/well in 96 well-plates (wells were pre-coated with poly-L-lysine (10 μg/mL)) and were cultured at +37° C. in a humidified air (95%)/CO2 (5%) atmosphere.
After 12 days of neuron culture, drugs of the candidate combinations were solved in culture medium (+0.1% DMSO). Candidate drugs or drug combinations were then pre-incubated with neurons for 1 h before the glutamate injury. Glutamate was added for 20 min, to a final concentration of 40 μM in presence of candidate drugs or drug combinations. At the end of the incubation, medium was changed with medium with candidate combination but without glutamate. The culture was fixed 24 h after glutamate injury. MK801 (Dizocilpinehydrogen maleate, 77086-22-7-20 μM) was used as a positive control.
After permeabilization with saponin (Sigma), cells were blocked for 2 h with PBS containing 10% goat serum, then the cells were incubated with mouse monoclonal primary antibody against Neurofilament antibody (NF, Sigma).
Nuclei of cells were labeled by a fluorescent marker (Hoechst solution, SIGMA), and neurite network quantified. Six wells per condition were used to assess neuronal survival in 3 different cultures.

[2] = high dose of acamprosate calcium
[3] = low dose of acamprosate calcium
[4] = cinacalcet 64 μM alone or mexiletine 25.6 μM alone, FIG. 1
[5] = sulfisoxazole 6.8 nM alone or torasemide 400 nM alone, FIG. 2
[6] = baclofen 2 μM alone or torasemide 400 nM alone, FIG. 4
[7] = baclofen 400 nM alone or acamprosate 1.6 nM alone, FIG. 3
[8] = levetiracetam 500 mg/kg 60 min before PTZ

With `CC(=O)NCCCS(=O)(=O)[O-].CC(=O)NCCCS(=O)(=O)[O-].[Ca+2]` [acamprosate calcium] as the compound, how does the “latency to clonic seizure (in words)” value ([1]; acamprosate calcium 0.032 mg/kg, PTZ 100 mg/kg s.c., not shown) read?
Its value is “increase”.

What about the “latency to clonic seizure (in words)” value ([1]; acamprosate calcium 0.5 mg/kg per os 2 h before PTZ 100 mg/kg s.c., FIG. 6, p<0.05 vs vehicle) of the same compound?
Its value is “significant increase”.

And the “latency to clonic seizure (in words)” value ([1]; acamprosate calcium 0.5 mg/kg per os 2 h before PTZ 100 mg/kg s.c., FIG. 6, p<0.05 vs vehicle, listed as Acamprosate calcium)?
Its value is “efficient in increasing”.

What about the “reduction of prevalence of death” value [1, 2] of the same compound?
Its value is 38%.

And the “reduction of prevalence of mice with clonic seizure” value [1, 2]?
Its value is 30%.

And the “reduction of prevalence of mice with tonic seizure” value [1, 2]?
The value was 38%.

What about the “reduction of prevalence of death” value [1, 3] of the same compound?
The value was 25%.

And the “reduction of prevalence of mice with clonic seizure” value [1, 3]?
Its value is 20%.

And the “reduction of prevalence of mice with tonic seizure” value [1, 3]?
The value was 25%.

With `C[C@@H](NCCCc1cccc(C(F)(F)F)c1)c1cccc2ccccc12` [cinacalcet, Cinacalcet] as the compound, how does the “effect on glutamate intoxication, drug alone” value (“effect” for short) (neuronal cortical cells; [4]) read?
The value was “no protection at all; also recorded: no significant effect”.

`Cc1noc(NS(=O)(=O)c2ccc(N)cc2)c1C` [sulfisoxazole, Sulfisoxazole] was tested. Which “effect” value (neuronal cortical cells; [5]) did it give?
The value was “no significant effect”.

Which results are given for `Cc1cccc(Nc2ccncc2S(=O)(=O)NC(=O)NC(C)C)c1` [torasemide, Torasemide]?
effect on glutamate intoxication, drug alone (neuronal cortical cells; [6]): no significant results; also recorded: no statistically significant effect; effect on glutamate intoxication, drug alone (neuronal cortical cells; [5]): no significant effect; protection against glutamate toxicity, drug alone (neuronal cortical cells): 8%

Which “effect” value (neuronal cortical cells; [7]) does the source give for `CC(=O)NCCCS(=O)(=O)O` [acamprosate, Acamprosate] here?
The value was “no statistically significant effect”.

`Cc1cccc(C)c1OCC(C)N` (stereo not shown) [mexiletine, Mexiletine] was tested. Which “effect” value (neuronal cortical cells; [4]) did it give?
The value was “no protection at all; also recorded: no significant effect”.

Which “PTZ-induced death (in words)” value [1, 8] does the source give for `CC[C@@H](C(N)=O)N1CCCC1=O` [levetiracetam] here?
The value was “reversed”.

What about the “PTZ-induced tonic seizure (in words)” value [1, 8] of the same compound?
The value was “reversed”.

What about the “time to clonic seizure (in words)” value ([1]; levetiracetam 500 mg/kg 60 min before PTZ 100 mg/kg s.c., FIG. 6) of the same compound?
The value was “no significant effect”.

How did the “effect” value (neuronal cortical cells; [7]) turn out when `NCC(CC(=O)O)c1ccc(Cl)cc1` (stereo not shown) [baclofen, Baclofen] was run?
The value was “no statistically significant effect”.

What about the “effect” value (neuronal cortical cells; [6]) of the same compound?
The value was “no significant results; also recorded: no statistically significant effect”.

And the “protection against glutamate toxicity, drug alone” value (neuronal cortical cells)?
The value was 13%.
